Drawing on US12679878B2, “CRF2 receptor agonists and their use in therapy” (SANOFI, priority 2020, dated 2026), this text covers EC50, Emax and solubility for four compounds.

For one series, the system named is rat CRF2R α receptor. As to the kind of experiment: cAMP agonism at rat CRF2R α receptor in A7R5 rat aortic smooth muscle cells (Example 8). It counts as cell-based. The note with it: cAMP HTRF, A7R5 rat aortic smooth muscle cell line, 0% HSA. An outline of the steps: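 Thawed cryopreserved A7R5 cells in HBSS/20 mM HEPES (0 or 0.1% HSA) with 2 mM IBMX, 2000 cells/well, were exposed to compound for 30 min at room temperature. cAMP was read by HTRF (665/620 nm ratio) after 1 h with lysis reagents. Activity was normalised to 1000 nM urocortin 2 as 100%, and EC50 was taken as the concentration giving 50% of maximal activation.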
Background: In TR-FRET formats the signal depends on donor and acceptor labels being close together.

A further series deals with T1, CRF1R receptor (Homo sapiens, UniProt P34998).
T1 construct: host or cells: CHO-K1 clone 2
T1 sequence (P34998 24-415): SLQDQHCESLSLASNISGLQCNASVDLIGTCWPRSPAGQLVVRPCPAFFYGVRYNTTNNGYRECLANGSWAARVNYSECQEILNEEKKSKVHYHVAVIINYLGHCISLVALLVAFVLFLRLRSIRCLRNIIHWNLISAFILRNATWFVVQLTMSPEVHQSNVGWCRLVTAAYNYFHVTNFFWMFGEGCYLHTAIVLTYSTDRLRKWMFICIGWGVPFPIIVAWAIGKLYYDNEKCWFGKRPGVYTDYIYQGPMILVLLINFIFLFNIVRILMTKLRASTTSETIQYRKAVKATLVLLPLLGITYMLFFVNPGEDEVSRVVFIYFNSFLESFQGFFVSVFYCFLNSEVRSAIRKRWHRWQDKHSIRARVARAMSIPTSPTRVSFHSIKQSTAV
As to the kind of experiment: cAMP activity at anti-target CRF1R, CRF1R-overexpression CHO cell line (Example 9). The note with it: for EC50: 0% HSA. It counts as cell-based. In outline: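 cAMP accumulation was read by HTRF after 30 min at room temperature of compound treatment. Cells were cryopreserved CHO cells overexpressing CRF1R, plated at 2000/well in IBMX (2 mM)-containing HBSS/HEPES buffer with 0 or 0.1% HSA. Activity was normalized to 1000 nM UCN2 as 100%.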

The nature of series [1]: Solubility in buffer systems by UPLC-UV (Example 13). It counts as physicochemical. On the procedure:
Prior to performing the solubility measurements, the purity of the compounds was determined through UPLC/MS. […] Therefore, solutions from solid samples were prepared in a buffer system with a concentration of 10 mg/mL compound based on the previously determined % purity.
UPLC-UV was performed after 1 hour of gentle agitation from the supernatant, which was obtained after 15 minutes of centrifugation at 2500 RCF (relative centrifugal acceleration). The solubility was determined by the comparison of the UV peak area of a 2 μL-injection of a buffered sample diluted 1:10 with a standard curve of a reference compound with known concentration. The different UV extinction coefficients of sample and reference compound were calculated based on the different amino acid sequences and considered in the concentration calculation.

The target of the next series is T2, human CRF2α receptor (Homo sapiens, UniProt Q13324).
T2 construct: expressed in transfected cells; host or cells: TeloHEAC
T2 sequence (Q13324 1-411): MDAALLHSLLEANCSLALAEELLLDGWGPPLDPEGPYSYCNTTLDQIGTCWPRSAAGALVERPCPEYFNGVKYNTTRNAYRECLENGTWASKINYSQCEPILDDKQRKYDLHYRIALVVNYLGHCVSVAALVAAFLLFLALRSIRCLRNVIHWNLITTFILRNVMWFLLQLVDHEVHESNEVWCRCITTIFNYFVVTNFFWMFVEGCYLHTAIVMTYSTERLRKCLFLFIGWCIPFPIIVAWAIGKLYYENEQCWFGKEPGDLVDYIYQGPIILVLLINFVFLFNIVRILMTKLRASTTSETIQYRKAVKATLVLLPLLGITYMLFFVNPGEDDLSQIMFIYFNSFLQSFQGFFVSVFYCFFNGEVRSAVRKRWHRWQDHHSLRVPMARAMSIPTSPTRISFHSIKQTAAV
In words: cAMP agonism at human CRF2 α receptor in TeloHEAC cells (Example 7). It counts as cell-based. To be noted: cAMP HTRF, TeloHEAC cells stably expressing human CRF2 α, 0% HSA; read-out: EC50 [nM], 0% HSA. An outline of the steps: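 HTRF ratio 665/620 nm, read 1 h after lysis reagents, reports cAMP. Cells: thawed stocks, 2000/well, 30 min RT with compound in HBSS, 20 mM HEPES, 0 or 0.1% HSA, 2 mM IBMX. Activity normalised to UCN2 1000 nM = 100%; EC50 from half-maximal activation.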

Where [2] appears, read: CRF1R-overexpression CHO cell line.
Setting [3] is: CRF1R-overexpression CHO cell line, read-out: Emax (%).
[4] abbreviates: pH 7.4, Solubility in Buffer C [mg/ml].

In brackets after ≈: the same amount, converted by molar mass. Where two headings read alike, the source gives them in different places. Starred links: 1 amine or outer side, 2 acyl side, 3 side chain; linkers in the order of their positions; H or OH if unused. Residues, ends and D or L forms follow the SMILES beside them. Groups on a side chain read outwards from the residue. *: point of attachment. C20 diacid = O=C(O)CCCCCCCCCCCCCCCCCCC(=O)*; C18 diacid = O=C(O)CCCCCCCCCCCCCCCCC(=O)*; γGlu = O=C(O)[C@H](CCC(=O)[*:2])N[*:1]; AEEA = NCCOCCOCC(=O)O

As usually defined, the EC50 is the concentration at which the effect is half-maximal. As usually defined, the Emax is the size of the effect at its maximum, as opposed to the concentration needed. For orientation: solubility means the dissolved amount per volume that the medium holds.

As to `CC[C@H](C)[C@H](N)C(=O)N[C@H](C(=O)N[C@@H](CC(C)C)C(=O)N[C@@H](CO)C(=O)N[C@@H](CC(C)C)C(=O)N[C@@H](CC(=O)O)C(=O)N[C@H](C(=O)N1CCC[C@H]1C(=O)N[C@H](C(=O)N[C@@H](CCCCN)C(=O)N[C@@H](CC(C)C)C(=O)N[C@@H](CCCCNC(=O)COCCOCCNC(=O)COCCOCCNC(=O)CC[C@H](NC(=O)CCCCCCCCCCCCCCCCC(=O)O)C(=O)O)C(=O)N[C@@H](CCC(N)=O)C(=O)N[C@H](C(=O)N[C@@H](CC(C)C)C(=O)N[C@@H](CC(C)C)C(=O)N[C@@H](CCC(=O)O)C(=O)N[C@@H](CCC(N)=O)C(=O)N[C@@H](CCC(=O)O)C(=O)N[C@@H](CCCNC(=N)N)C(=O)N[C@@H](CCC(N)=O)C(=O)N[C@@H](CCCNC(=N)N)C(=O)N[C@@H](CCCCN)C(=O)N[C@@H](CCC(=O)O)C(=O)N[C@@H](CCCNC(=N)N)C(=O)N[C@@H](CCC(N)=O)C(=O)N[C@@H](CCC(N)=O)C(=O)N[C@@H](C)C(=O)N[C@@H](CCC(=O)O)C(=O)N[C@H](C(=O)N[C@@H](CC(N)=O)C(=O)N[C@@H](C)C(=O)N[C@@H](CCC(N)=O)C(=O)N[C@H](C(=O)N[C@@H](CC(C)C)C(=O)N[C@@H](C)C(=O)N[C@@H](CCC(N)=O)C(=O)N[C@H](C(N)=O)C(C)C)[C@@H](C)CC)[C@@H](C)O)[C@@H](C)CC)[C@@H](C)CC)C(C)C)C(C)C` [compound 39] (H-IVLSLDVPIKLK([AEEA-AEEA-γGlu-C18 diacid])QILLEQERQRKERQQAETNAQILAQV-NH2), the EC50 was 2.04 nM in the series on rat CRF2R α receptor, greater than 1000 nM at CRF1R receptor (setting [2]) and 0.65 nM at human CRF2α receptor. On CRF1R receptor (setting [3]), the Emax amounted to 13.3%. In series [1] (setting [4]), this compound registered a solubility at 1 h of 10300 µg/mL (≈ 2000 µM).

Regarding `CC[C@H](C)[C@H](N)C(=O)N[C@H](C(=O)N[C@@H](CC(C)C)C(=O)N[C@@H](CO)C(=O)N[C@@H](CC(C)C)C(=O)N[C@@H](CC(=O)O)C(=O)N[C@H](C(=O)N1CCC[C@H]1C(=O)N[C@H](C(=O)N[C@@H](CCCCN)C(=O)N[C@@H](CC(C)C)C(=O)N[C@@H](CCCCNC(=O)COCCOCCNC(=O)COCCOCCNC(=O)CC[C@H](NC(=O)CCCCCCCCCCCCCCCCC(=O)O)C(=O)O)C(=O)N[C@@H](CCC(N)=O)C(=O)N[C@H](C(=O)N[C@@H](CC(C)C)C(=O)N[C@@H](CC(C)C)C(=O)N[C@@H](CCC(=O)O)C(=O)N[C@@H](CCC(N)=O)C(=O)N[C@@H](C)C(=O)N[C@@H](CCCCN)C(=O)N[C@@H](CCC(N)=O)C(=O)N[C@@H](CCCCN)C(=O)N[C@@H](CCCCN)C(=O)N[C@@H](CC(C)C)C(=O)N[C@@H](CCCNC(=N)N)C(=O)N[C@@H](C)C(=O)N[C@@H](CCC(N)=O)C(=O)N[C@@H](C)C(=O)N[C@@H](CCC(=O)O)C(=O)N[C@H](C(=O)N[C@@H](CC(N)=O)C(=O)N[C@H](C(=O)N[C@@H](CCCNC(=N)N)C(=O)N[C@H](C(=O)N[C@@H](CC(C)C)C(=O)N[C@@H](CCC(=O)O)C(=O)N[C@@H](CCCNC(=N)N)C(=O)N[C@H](C(N)=O)C(C)C)[C@@H](C)CC)C(C)C)[C@@H](C)O)[C@@H](C)CC)[C@@H](C)CC)C(C)C)C(C)C` [compound 43] (H-IVLSLDVPIKLK([AEEA-AEEA-γGlu-C18 diacid])QILLEQAKQKKLRAQAETNVRILERV-NH2; N-terminus assumed), the EC50 was 11.5 nM in the series on rat CRF2R α receptor and 1.9 nM at human CRF2α receptor. For the same compound, in series [1] (setting [4]), the solubility at 1 h was greater than 9800 µg/mL.

On to `CC[C@H](C)[C@H](NC(=O)[C@H](CCC(N)=O)NC(=O)[C@H](CCC(=O)O)NC(=O)[C@H](CC(C)C)NC(=O)[C@H](CC(C)C)NC(=O)[C@H](CCC(N)=O)NC(=O)[C@H](CCCCN)NC(=O)[C@H](CC(N)=O)NC(=O)[C@H](CCCCN)NC(=O)[C@H](CCC(=O)O)NC(=O)[C@H](C)NC(=O)[C@H](CCC(N)=O)NC(=O)[C@H](CCC(N)=O)NC(=O)[C@H](CCCNC(=N)N)NC(=O)[C@H](CCC(=O)O)NC(=O)[C@H](CCCCN)NC(=O)[C@H](CCCCN)NC(=O)[C@H](CCC(N)=O)NC(=O)[C@H](CCCCN)NC(=O)[C@H](CCC(N)=O)NC(=O)[C@H](CCC(N)=O)NC(=O)[C@H](CCCCN)NC(=O)[C@H](Cc1ccccc1)NC(=O)[C@H](CC(C)C)NC(=O)[C@@H](NC(=O)[C@H](CCC(N)=O)NC(=O)[C@H](CCCCNC(=O)COCCOCCNC(=O)COCCOCCNC(=O)CC[C@H](NC(=O)CCCCCCCCCCCCCCCCCCC(=O)O)C(=O)O)NC(=O)[C@@H](NC(=O)[C@H](CCCCN)NC(=O)[C@@H](NC(=O)[C@@H]1CCCN1C(=O)[C@@H](NC(=O)[C@H](CC(=O)O)NC(=O)[C@H](CC(C)C)NC(=O)[C@H](CO)NC(=O)[C@H](CC(C)C)NC(=O)[C@@H](NC(=O)[C@@H](N)Cc1ccccc1)[C@@H](C)O)C(C)C)[C@@H](C)O)[C@@H](C)CC)[C@@H](C)CC)C(N)=O` [compound 58] (H-FTLSLDVPTKIK([AEEA-AEEA-γGlu-C20 diacid])QILFKQQKQKKERQQAEKNKQLLEQI-NH2; N-terminus assumed), for which the results for the EC50 with rat CRF2R α receptor and on human CRF2α receptor were 0.72 nM and 0.28 nM, respectively. Further, the Emax on CRF1R receptor (CHO) came to 9.12%. Further, the solubility at 1 h in series [1] (Buffer B: 100 mM acetate buffer, pH 4.5, 2.7 mg/ml m-cresol, target 10 mg/ml, read-out: Solubility in Buffer B) was greater than 9500 µg/mL; in series [1] (Buffer C: 100 mM phosphate buffer, pH 7.4, target 10 mg/ml, read-out: Solubility in Buffer C) it was greater than 9400 µg/mL.

Consider `CC[C@H](C)[C@H](NC(=O)[C@H](CCC(N)=O)NC(=O)[C@H](CCCCNC(=O)COCCOCCNC(=O)COCCOCCNC(=O)CC[C@H](NC(=O)CCCCCCCCCCCCCCCCCCC(=O)O)C(=O)O)NC(=O)[C@@H](NC(=O)[C@H](CCCCN)NC(=O)[C@@H](NC(=O)[C@@H]1CCCN1C(=O)[C@@H](NC(=O)[C@H](CC(=O)O)NC(=O)[C@H](CC(C)C)NC(=O)[C@H](CO)NC(=O)[C@H](CC(C)C)NC(=O)[C@@H](NC(=O)[C@@H](N)Cc1ccccc1)[C@@H](C)O)C(C)C)[C@@H](C)O)[C@@H](C)CC)C(=O)N[C@@H](CC(C)C)C(=O)N[C@@H](CC(C)C)C(=O)N[C@@H](CCCCN)C(=O)N[C@@H](CCC(N)=O)C(=O)N[C@@H](CCC(N)=O)C(=O)N[C@@H](CCCCN)C(=O)N[C@@H](CCC(N)=O)C(=O)N[C@@H](CCCCN)C(=O)N[C@@H](CCCCN)C(=O)N[C@@H](CCC(=O)O)C(=O)N[C@@H](CCCNC(=N)N)C(=O)N[C@@H](CCC(N)=O)C(=O)N[C@@H](CCC(N)=O)C(=O)N[C@@H](C)C(=O)N[C@@H](CCC(=O)O)C(=O)N[C@H](C(=O)N[C@@H](CC(N)=O)C(=O)N[C@@H](CCCCN)C(=O)N[C@@H](CCC(N)=O)C(=O)N[C@@H](CC(C)C)C(=O)N[C@@H](CC(C)C)C(=O)N[C@@H](CCC(=O)O)C(=O)N[C@@H](CCCNC(=N)N)C(=O)N[C@H](C(N)=O)C(C)C)[C@@H](C)O` [compound 61] (H-FTLSLDVPTKIK([AEEA-AEEA-γGlu-C20 diacid])QILLKQQKQKKERQQAETNKQLLERV-NH2), for which the EC50 in the series on rat CRF2R α receptor was 0.94 nM; on CRF1R receptor (setting [2]), greater than 1000 nM; at human CRF2α receptor it was 0.38 nM. Moreover, the Emax at CRF1R receptor (setting [3]) was found to be 3.31%. Moreover, the solubility at 1 h in series [1] (pH 4.5, Solubility in Buffer B [mg/ml]) is greater than 10600 µg/mL; in series [1] (setting [4]), greater than 9500 µg/mL.
